In PMC12285253, “Insights into genetic determinants of volatile fatty acid catabolism in Cupriavidus necator H16” (Applied and Environmental Microbiology, 2025):

Legend:
H16_B1148 = biological target: T1, H16_B1148 (Cupriavidus necator, UniProt Q0K235); assay: coupled NADH assay of ATP consumption (myokinase, pyruvate kinase, lactate dehydrogenase); type: biochemical; details: 2 mM substrate, 1 mM CoA, 2.1 mM ATP, 5 mM MgCl2, pH 7.5
T1 construct: N-terminal hexahistidine tag, E. coli BL21(DE3) delta-patZ, Ni-NTA and SEC
T1 sequence (Q0K235 1-544): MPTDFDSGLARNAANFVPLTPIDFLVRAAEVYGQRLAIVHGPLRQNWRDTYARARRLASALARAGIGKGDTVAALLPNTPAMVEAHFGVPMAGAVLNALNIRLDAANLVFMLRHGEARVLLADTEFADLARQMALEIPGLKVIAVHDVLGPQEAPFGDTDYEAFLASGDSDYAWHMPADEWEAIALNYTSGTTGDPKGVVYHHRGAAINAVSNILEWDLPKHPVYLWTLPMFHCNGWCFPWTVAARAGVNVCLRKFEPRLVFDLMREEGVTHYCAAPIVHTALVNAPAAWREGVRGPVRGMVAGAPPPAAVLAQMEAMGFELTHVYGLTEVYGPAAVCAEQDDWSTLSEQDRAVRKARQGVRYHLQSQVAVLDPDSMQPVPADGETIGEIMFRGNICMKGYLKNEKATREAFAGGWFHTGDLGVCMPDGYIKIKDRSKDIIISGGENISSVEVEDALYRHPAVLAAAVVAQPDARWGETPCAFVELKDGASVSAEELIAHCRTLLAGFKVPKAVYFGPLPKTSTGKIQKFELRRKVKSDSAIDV

H16_B1335 = biological target: T2, H16_B1335 (Cupriavidus necator, UniProt Q0K1J9); assay: as above; type: biochemical; details: 2 mM substrate, 1 mM CoA, 2.1 mM ATP, 5 mM MgCl2, pH 7.5
T2 sequence (Q0K1J9 1-562): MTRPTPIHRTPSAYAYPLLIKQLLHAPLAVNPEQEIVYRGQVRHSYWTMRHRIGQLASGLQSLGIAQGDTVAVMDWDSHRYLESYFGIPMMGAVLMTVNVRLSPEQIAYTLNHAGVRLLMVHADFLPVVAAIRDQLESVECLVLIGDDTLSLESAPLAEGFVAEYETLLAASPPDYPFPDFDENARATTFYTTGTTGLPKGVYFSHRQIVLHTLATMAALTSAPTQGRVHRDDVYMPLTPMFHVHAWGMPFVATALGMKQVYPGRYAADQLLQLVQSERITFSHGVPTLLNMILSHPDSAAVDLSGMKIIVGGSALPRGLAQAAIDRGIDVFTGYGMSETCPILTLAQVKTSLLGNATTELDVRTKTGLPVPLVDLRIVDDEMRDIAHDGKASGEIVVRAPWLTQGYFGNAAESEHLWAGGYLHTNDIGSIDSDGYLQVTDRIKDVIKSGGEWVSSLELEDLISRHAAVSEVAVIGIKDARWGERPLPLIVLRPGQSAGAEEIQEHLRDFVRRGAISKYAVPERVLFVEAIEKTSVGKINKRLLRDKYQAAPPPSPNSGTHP

Row | Structure (SMILES) | relative activity (H16_B1148) | relative activity (H16_B1335)
1 | CCC(=O)O [C3, propionate] | The relative activity of H16_B1148 skewed toward shorter chain lengths | –
2 | CCCCC(=O)O [C5, valerate] | – | our in vitro assay results demonstrating that H16_B1335 is also active on valerate
3 | CCCCCC(=O)O [C6, hexanoate] | – | the relative activity of H16_B1335 skewed toward longer chain lengths
